Laboratory results published in ChEMBL document CHEMBL4507303, “Data for DCP probe TP-004” (2021).

Experiments:
[1] = tested on: Tyrosine-protein kinase ABL1 (Homo sapiens), P00519 [F317L]; settings: Compound concentration 1000.0 nM
[2] = target: Mitotic checkpoint serine/threonine-protein kinase BUB1 (Homo sapiens) (UniProt O43683); settings: Compound concentration 1000.0 nM
[3] = target: Calcium/calmodulin-dependent protein kinase type II subunit alpha (Homo sapiens) (UniProt Q9UQM7); settings: Compound concentration 1000.0 nM
[4] = target: Calcium/calmodulin-dependent protein kinase kinase 1 (Homo sapiens) (UniProt Q8N5S9); settings: Compound concentration 1000.0 nM
[5] = target: Cyclin-dependent kinase 13 (Homo sapiens) (UniProt Q14004); settings: Compound concentration 1000.0 nM
[6] = target: Ephrin type-A receptor 3 (Homo sapiens) (UniProt P29320); settings: Compound concentration 1000.0 nM
[7] = target: Ephrin type-A receptor 4 (Homo sapiens) (UniProt P54764); settings: Compound concentration 1000.0 nM
[8] = target: Inhibitor of nuclear factor kappa-B kinase subunit beta (Homo sapiens) (UniProt O14920); settings: Compound concentration 1000.0 nM
[9] = target: Serine/threonine-protein kinase mTOR (Homo sapiens) (UniProt P42345); settings: Compound concentration 1000.0 nM
[10] = target: Serine/threonine-protein kinase Nek5 (Homo sapiens) (UniProt Q6P3R8); settings: Compound concentration 1000.0 nM
[11] = target: Serine/threonine-protein kinase D2 (Homo sapiens) (UniProt Q9BZL6); settings: Compound concentration 1000.0 nM
[12] = target: Receptor-interacting serine/threonine-protein kinase 1 (Homo sapiens) (UniProt Q13546); settings: Compound concentration 1000.0 nM
[13] = target: NUAK family SNF1-like kinase 2 (Homo sapiens) (UniProt Q9H093); settings: Compound concentration 1000.0 nM
[14] = target: SRSF protein kinase 2 (Homo sapiens) (UniProt P78362); settings: Compound concentration 1000.0 nM
[15] = target: Serine/threonine-protein kinase 35 (Homo sapiens) (UniProt Q8TDR2); settings: Compound concentration 1000.0 nM
[16] = target: Mitogen-activated protein kinase kinase kinase 7 (Homo sapiens) (UniProt O43318); settings: Compound concentration 1000.0 nM
[17] = target: Tyrosine-protein kinase ZAP-70 (Homo sapiens) (UniProt P43403); settings: Compound concentration 1000.0 nM
[18] = target: 5-hydroxytryptamine receptor 7 (Homo sapiens) (UniProt P34969); settings: Compound concentration 10.0 uM
[19] = target: Sodium-dependent noradrenaline transporter (Homo sapiens) (UniProt P23975); settings: Compound concentration 10.0 uM

Cyclin-dependent kinase 13 (Homo sapiens), sequence (Q14004 whole entry, looked up): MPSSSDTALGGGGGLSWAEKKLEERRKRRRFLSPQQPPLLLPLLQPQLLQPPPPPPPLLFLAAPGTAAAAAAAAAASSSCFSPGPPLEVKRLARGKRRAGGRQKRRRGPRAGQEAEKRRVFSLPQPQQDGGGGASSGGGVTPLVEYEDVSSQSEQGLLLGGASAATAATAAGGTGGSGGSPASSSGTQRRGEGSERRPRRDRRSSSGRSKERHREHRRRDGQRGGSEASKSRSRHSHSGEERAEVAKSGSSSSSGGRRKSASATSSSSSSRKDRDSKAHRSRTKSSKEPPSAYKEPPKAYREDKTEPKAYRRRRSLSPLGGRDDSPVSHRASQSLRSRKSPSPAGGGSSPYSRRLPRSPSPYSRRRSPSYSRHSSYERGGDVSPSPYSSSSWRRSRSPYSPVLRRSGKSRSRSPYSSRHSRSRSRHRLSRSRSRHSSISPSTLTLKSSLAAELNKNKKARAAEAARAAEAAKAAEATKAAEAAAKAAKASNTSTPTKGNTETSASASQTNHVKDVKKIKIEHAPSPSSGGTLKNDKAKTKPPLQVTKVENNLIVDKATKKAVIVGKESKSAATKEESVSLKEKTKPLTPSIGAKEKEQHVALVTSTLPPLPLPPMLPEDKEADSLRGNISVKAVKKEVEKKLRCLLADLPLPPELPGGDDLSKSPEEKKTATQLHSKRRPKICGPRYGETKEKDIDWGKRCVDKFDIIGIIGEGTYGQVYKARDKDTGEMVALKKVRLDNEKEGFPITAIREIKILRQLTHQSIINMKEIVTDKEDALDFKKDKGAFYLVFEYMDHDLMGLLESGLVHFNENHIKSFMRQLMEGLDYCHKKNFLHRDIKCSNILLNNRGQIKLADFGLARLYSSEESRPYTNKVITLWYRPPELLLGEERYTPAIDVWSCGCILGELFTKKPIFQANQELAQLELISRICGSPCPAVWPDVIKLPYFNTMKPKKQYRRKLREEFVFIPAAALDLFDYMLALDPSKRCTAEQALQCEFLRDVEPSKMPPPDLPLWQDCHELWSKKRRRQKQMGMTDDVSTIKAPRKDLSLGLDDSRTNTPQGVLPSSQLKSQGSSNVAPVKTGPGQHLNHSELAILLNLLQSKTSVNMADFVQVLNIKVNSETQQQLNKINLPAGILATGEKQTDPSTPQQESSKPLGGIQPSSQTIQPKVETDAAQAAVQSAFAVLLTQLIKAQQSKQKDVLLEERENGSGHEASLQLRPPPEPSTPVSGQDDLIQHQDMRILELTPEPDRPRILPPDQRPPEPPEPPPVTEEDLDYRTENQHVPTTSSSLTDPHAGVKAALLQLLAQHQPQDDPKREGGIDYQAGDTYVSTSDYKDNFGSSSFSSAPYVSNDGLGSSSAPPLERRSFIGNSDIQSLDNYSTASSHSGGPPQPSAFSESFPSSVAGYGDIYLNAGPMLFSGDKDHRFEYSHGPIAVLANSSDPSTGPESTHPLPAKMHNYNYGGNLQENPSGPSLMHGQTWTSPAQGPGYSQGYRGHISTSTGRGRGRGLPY
SRSF protein kinase 2 (Homo sapiens), sequence (P78362 whole entry, looked up): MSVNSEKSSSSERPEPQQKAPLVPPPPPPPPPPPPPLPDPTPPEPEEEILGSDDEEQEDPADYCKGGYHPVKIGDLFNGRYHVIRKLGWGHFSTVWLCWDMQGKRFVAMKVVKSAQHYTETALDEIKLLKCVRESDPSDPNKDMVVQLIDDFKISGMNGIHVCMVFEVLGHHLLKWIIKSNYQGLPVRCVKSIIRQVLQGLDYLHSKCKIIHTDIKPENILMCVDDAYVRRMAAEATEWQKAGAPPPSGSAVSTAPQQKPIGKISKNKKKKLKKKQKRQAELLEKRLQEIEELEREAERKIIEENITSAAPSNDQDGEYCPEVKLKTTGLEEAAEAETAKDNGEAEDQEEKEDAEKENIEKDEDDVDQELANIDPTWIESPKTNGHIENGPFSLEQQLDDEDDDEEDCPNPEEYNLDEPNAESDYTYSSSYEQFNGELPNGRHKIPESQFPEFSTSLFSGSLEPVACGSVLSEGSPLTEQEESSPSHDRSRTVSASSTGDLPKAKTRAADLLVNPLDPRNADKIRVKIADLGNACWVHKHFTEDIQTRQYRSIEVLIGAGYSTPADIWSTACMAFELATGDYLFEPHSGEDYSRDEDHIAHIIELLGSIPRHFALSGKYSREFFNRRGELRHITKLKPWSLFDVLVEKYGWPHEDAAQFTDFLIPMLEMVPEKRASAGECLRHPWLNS
Tyrosine-protein kinase ABL1 (Homo sapiens), P00519 [F317L], sequence (P00519 whole entry F317L): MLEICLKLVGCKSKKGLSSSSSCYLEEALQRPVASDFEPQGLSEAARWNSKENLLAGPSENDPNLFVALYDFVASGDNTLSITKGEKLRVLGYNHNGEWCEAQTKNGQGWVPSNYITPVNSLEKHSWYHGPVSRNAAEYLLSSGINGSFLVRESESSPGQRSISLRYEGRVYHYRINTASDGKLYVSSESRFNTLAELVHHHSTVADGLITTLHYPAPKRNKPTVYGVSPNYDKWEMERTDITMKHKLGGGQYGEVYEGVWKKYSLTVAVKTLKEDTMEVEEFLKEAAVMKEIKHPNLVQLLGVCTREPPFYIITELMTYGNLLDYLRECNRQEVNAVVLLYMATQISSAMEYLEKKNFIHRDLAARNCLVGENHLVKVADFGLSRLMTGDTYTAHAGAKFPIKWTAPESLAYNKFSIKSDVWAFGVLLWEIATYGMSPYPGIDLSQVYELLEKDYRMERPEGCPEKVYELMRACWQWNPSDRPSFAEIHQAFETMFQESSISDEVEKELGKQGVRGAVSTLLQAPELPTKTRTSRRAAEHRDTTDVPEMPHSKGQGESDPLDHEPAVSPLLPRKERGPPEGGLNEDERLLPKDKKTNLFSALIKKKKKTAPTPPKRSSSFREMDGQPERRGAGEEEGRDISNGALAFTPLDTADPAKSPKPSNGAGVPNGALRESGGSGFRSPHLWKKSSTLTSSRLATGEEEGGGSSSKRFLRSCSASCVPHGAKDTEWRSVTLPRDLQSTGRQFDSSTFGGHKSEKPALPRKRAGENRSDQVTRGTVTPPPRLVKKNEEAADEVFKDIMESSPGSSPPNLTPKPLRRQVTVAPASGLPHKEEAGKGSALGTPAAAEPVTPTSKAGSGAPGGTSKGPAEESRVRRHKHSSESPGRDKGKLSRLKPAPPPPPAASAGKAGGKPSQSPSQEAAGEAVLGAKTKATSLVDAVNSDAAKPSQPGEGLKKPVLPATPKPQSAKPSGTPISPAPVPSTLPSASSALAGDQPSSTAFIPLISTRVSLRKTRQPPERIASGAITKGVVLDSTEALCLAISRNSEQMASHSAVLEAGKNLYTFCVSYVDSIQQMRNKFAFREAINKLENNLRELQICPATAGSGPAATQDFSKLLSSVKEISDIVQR
Tyrosine-protein kinase ZAP-70 (Homo sapiens), sequence (P43403 whole entry): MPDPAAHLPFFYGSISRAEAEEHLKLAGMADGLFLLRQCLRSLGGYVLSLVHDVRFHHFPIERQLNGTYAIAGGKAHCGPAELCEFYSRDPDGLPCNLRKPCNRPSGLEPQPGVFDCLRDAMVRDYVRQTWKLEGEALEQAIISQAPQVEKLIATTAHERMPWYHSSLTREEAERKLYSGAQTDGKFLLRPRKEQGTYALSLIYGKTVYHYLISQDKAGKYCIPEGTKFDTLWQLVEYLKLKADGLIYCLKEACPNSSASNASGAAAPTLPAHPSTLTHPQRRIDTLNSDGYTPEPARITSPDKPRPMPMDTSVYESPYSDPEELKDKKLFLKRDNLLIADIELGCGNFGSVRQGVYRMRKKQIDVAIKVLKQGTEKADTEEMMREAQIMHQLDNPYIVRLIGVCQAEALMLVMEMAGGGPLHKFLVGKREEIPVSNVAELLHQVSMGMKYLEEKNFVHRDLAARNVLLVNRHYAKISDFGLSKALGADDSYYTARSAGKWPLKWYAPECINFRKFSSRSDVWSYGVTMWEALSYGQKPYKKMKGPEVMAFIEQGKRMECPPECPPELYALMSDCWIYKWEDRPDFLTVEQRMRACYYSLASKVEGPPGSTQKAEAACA
Mitotic checkpoint serine/threonine-protein kinase BUB1 (Homo sapiens), sequence (O43683 whole entry, looked up): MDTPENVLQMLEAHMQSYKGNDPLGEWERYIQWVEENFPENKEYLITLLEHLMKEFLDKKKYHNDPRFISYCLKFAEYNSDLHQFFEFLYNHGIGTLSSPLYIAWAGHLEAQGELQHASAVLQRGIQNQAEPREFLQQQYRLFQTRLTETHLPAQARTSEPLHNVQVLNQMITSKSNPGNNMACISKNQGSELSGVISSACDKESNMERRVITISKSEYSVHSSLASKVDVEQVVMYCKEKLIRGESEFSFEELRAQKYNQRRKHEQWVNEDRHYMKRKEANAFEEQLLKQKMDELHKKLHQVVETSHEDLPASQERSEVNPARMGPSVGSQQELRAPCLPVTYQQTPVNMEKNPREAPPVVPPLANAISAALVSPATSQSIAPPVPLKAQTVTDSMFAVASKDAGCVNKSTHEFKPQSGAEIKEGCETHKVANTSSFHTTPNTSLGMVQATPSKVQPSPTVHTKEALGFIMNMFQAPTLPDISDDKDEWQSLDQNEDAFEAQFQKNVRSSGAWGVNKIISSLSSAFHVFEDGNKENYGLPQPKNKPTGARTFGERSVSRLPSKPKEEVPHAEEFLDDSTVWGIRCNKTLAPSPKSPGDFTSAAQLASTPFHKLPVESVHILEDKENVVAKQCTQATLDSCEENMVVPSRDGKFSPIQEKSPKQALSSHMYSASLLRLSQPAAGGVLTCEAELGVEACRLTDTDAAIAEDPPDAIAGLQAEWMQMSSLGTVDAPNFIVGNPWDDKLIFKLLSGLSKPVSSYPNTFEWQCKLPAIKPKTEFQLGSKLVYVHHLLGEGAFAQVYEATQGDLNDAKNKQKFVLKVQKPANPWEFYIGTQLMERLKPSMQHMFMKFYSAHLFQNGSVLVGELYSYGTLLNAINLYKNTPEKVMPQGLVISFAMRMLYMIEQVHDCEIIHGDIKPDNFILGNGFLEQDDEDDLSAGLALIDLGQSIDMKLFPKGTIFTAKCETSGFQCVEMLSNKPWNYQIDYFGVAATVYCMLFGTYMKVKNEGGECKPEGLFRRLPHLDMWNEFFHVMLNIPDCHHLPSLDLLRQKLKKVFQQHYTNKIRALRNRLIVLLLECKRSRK

Cc1nc(N2CC[C@@H](O)C2)ncc1-c1cc(C(F)(F)F)cc2[nH]ncc12 [TP-004]
inactive: residual activity [1] 58% | residual activity [2] 75% | residual activity [3] 100% | residual activity [4] 100% | residual activity [5] 90% | residual activity [6] 94% | residual activity [7] 100% | residual activity [8] 77% | residual activity [9] 100% | residual activity [10] 100% | residual activity [11] 79% | residual activity [12] 100% | residual activity [13] 67% | residual activity [14] 100% | residual activity [15] 100% | residual activity [16] 89% | residual activity [17] 65% | inhibition [18] 10.8% | inhibition [19] 36.9%
